Results: the supplement of paper PMC13380429

Tests used:
Conditions in all cases: 72 h
U2OS [1] = test: relative viability EC50 (midpoint between 100% and the lowest measured viability); higher = less toxic
Vero E6 [2] = test: as above
Calu-3 [3] = test: as above
HepG2 [4] = test: as above
Caco-2 [5] = test: as above
U2OS [6] = test: cell viability relative to DMSO; higher = less toxic
Vero E6 [7] = test: as above
Calu-3 [8] = test: as above
HepG2 [9] = test: as above
Caco-2 [10] = test: as above
U2OS [11] = test: drug sensitivity score (DSS) for viability; higher = more toxic; extreme values may be limits of the assay
Vero E6 [12] = test: as above
Calu-3 [13] = test: as above
HepG2 [14] = test: as above
Caco-2 [15] = test: as above

| Structure (SMILES) | relative viability EC50 (U2OS [1]) | relative viability EC50 (Vero E6 [2]) | relative viability EC50 (Calu-3 [3]) | relative viability EC50 (HepG2 [4]) | relative viability EC50 (Caco-2 [5]) | cell viability (U2OS [6]; 1 nM) | cell viability (U2OS [6]; 10 nM) | cell viability (U2OS [6]; 100 nM) | cell viability (U2OS [6]; 1000 nM) | cell viability (U2OS [6]; 10000 nM) | cell viability (Vero E6 [7]; 1 nM) | cell viability (Vero E6 [7]; 10 nM) | cell viability (Vero E6 [7]; 100 nM) | cell viability (Vero E6 [7]; 1000 nM) | cell viability (Vero E6 [7]; 10000 nM) | cell viability (Calu-3 [8]; 1 nM) | cell viability (Calu-3 [8]; 10 nM) | cell viability (Calu-3 [8]; 100 nM) | cell viability (Calu-3 [8]; 1000 nM) | cell viability (Calu-3 [8]; 10000 nM) | cell viability (HepG2 [9]; 1 nM) | cell viability (HepG2 [9]; 10 nM) | cell viability (HepG2 [9]; 100 nM) | cell viability (HepG2 [9]; 1000 nM) | cell viability (HepG2 [9]; 10000 nM) | cell viability (Caco-2 [10]; 1 nM) | cell viability (Caco-2 [10]; 10 nM) | cell viability (Caco-2 [10]; 100 nM) | cell viability (Caco-2 [10]; 1000 nM) | cell viability (Caco-2 [10]; 10000 nM) | drug sensitivity score (U2OS [11]) | drug sensitivity score (Vero E6 [12]) | drug sensitivity score (Calu-3 [13]) | drug sensitivity score (HepG2 [14]) | drug sensitivity score (Caco-2 [15]) |
| --- | --- | --- | --- | --- | --- | --- | --- | --- | --- | --- | --- | --- | --- | --- | --- | --- | --- | --- | --- | --- | --- | --- | --- | --- | --- | --- | --- | --- | --- | --- | --- | --- | --- | --- | --- |
| COC1CCN(C(=O)c2cc(Cc3n[nH]c(=O)c4ccccc34)ccc2F)CC1 [AZD2461] | > 10 µM | > 10 µM | > 10 µM | > 10 µM | > 10 µM | 94.4% | 96% | 99.1% | 94.4% | 100% | 99.3% | 97% | 99.7% | 97.9% | 99.9% | 86.7% | 100% | 79.8% | 69.5% | 92.5% | 99.5% | 86% | 85.5% | 93.8% | 87.2% | 90.3% | 97.5% | 95.5% | 100% | 93.6% | 0 | 0 | 0 | 3.4 | 0 |
| COc1ccc(-c2ccc3ncc4c(c3c2)n(-c2ccc(N3CCNCC3)c(C(F)(F)F)c2)c(=O)n4C)cn1 [BGT226] | 0.0293 µM | 0.14 µM | 0.0321 µM | 0.107 µM | 0.0397 µM | 101% | 74.2% | 22.8% | 0.1% | -0.2% | 98% | 93.9% | 52.2% | 22.2% | -0.2% | 110% | 58.3% | 29.6% | 23.2% | 0% | 110% | 91.5% | 50.8% | 11.5% | -0.3% | 88.6% | 69% | 35.8% | 19.3% | 0.6% | 29.8 | 21 | 28.4 | 22.8 | 26.8 |
| CCNC(C)CN1CCc2c(c(=O)oc3ccccc23)C1 (stereo not given) [CI-923] | > 10 µM | > 10 µM | > 10 µM | > 10 µM | > 10 µM | 99% | 99.3% | 95.9% | 101% | 95.8% | 99.7% | 103% | 104% | 95.9% | 94.5% | 99.5% | 109% | 100% | 111% | 99.1% | 99.6% | 93.1% | 105% | 97.5% | 109% | 103% | 102% | 103% | 97.9% | 93.6% | 0 | 0 | 0 | 0 | 0 |
